# Data published in patent US4950650A, “Novel arginine vasopressin-binding peptides” (University of Florida, priority 1988, dated 1990).
# Where no end group is shown, it is not given here.
# How the values were obtained:
# [1] = tested on: AVP receptor on splenic lymphocyte; assay: Binding of 3H-AVP to receptor on splenic lymphocyte membranes; set-up: species or system mouse; settings: for DPM (Mean ± SD): 300 nM 3H-AVP
# Method: Membranes were prepared as previously described (Torres and Johnson [1988] supra). Freshly dissociated spleen cells were incubated on plastic at 37° C. for 1 hr to remove adherent cells. Plates were washed and non-adherent cells were incubated for an additional hour at 37° C. Washed non-adherent cells were resuspended in 50 mM Tris-HCl buffer (pH 7.4) containing 10 mM EGTA and 10 μM phenylmethylsulfonylfluoride (PMSF), which generally lysed any red blood cells in the preparation. Additional red blood cell lysis was performed using 10 mM potassium bicarbonate buffer containing 16 mM ammonium chloride and 100 μM ethylenediaminetetraacetic acid (EDTA). Cells were washed twice and sonicated on ice using a Fisher Model 300 Sonicator (Fisher Scientific, Pittsburgh, Penna.) with microprobe. Preparations were monitored microscopically and were sonicated until greater than 95% cell rupture was achieved. Sonicated preparations were centrifuged at 1000×g at 4° C. to remove debris and large particles. Supernatants were then spun at 33,000 rpm (55,000×g) at 4° C. for 45 min in a Sorvall UTD65B Ultracentrifuge (T1270 rotor) to isolate membranes. Resulting membrane preparations were resuspended in 50 mM Tris-HCl (pH 7.4) containing 10 mM MgCL2 and 10 μM PMSF, and aliquots were stored at -70° C.
# Membranes (30 μg/ml) were incubated in a final volume of 200 μl with cold AVP and/or AVP-binding peptide for 20 min. prior to the addition of 300 nM ^3 H-AVP (specific activity, 70 Ci/mmol; New England Nuclear, Boston, Mass.). Binding was carried out at room temperature for 30 min., at which time samples were placed on ice to stop further binding. Membranes were washed through 0.45 μm filters (GVWP; Millipore, Bedford, Mass.) presoaked in 2% bovine serum albumin (BSA) with approximately 50× volume of ice cold reaction buffer (50 mM Tris-HCl, pH 7.4, 10 mM MgCl2, 2% BSA, 10 μM PMSF). Filters were then placed in scintillation vials and radioactivity was counted on a beta-scintillation counter.
# AVP = AVP (Homo sapiens, UniProt P01185); assay: Solid matrix binding of 3H-AVP to immobilized AVP-binding peptide; settings: 3H-AVP binding to peptide coupled to a solid matrix, room temperature 1 hr; read-out: apparent KD
# Method: FIG. 1--Specific binding of ^3 H-AVP to AVP-binding peptide […] AVP-binding peptide (200 μl of a 2 mg/ml solution) was bound overnight at 4° C. onto 96-well Immulon plates (Dynatech, Alexandria, Va.). Plates were washed three times with phosphate-buffered saline containing 5% BSA and 0.1% TWEEN™ 20 (binding buffer). Remaining binding sites were bound by incubating plates at room temperature with 20 μl binding buffer/well for 2 hr. After extensive washing, cold AVP (10 μM) was added to the appropriate plates 20 min, prior to the addition of ^3 H-AVP. Solid matrix binding was carried out at room temperature for 1 hr. Plates were washed three times and counts were solubilized with 1 N NaOH. Counts were then placed in scintillation vials and counted on a beta-scintillation counter. Specific binding of ^3 H-AVP was the difference between the binding in the absence and presence of cold AVP.
# Evidence for such direct interaction is provided by the binding data of FIG. 1, where ^3 H-AVP bound to the peptide coupled to a solid matrix with an apparent KD of approximately 50 nM. The binding was inhibited by excess cold AVP. We conclude that the peptide blocks AVP function through direct binding to AVP.
# [2] = tested on: PA helper signal for IFN production; assay: Pressinoic acid (PA) help in IFN production in helper cell depleted spleen cell cultures; assay type: cell-based, mouse
compound,measurement,setting,value
"NC(=O)CC[C@@H]1NC(=O)[C@H](Cc2ccccc2)NC(=O)[C@H](Cc2ccc(O)cc2)NC(=O)[C@@H](N)CSSC[C@@H](C(=O)N2CCC[C@H]2C(=O)N[C@@H](CCCN=C(N)N)C(=O)NCC(N)=O)NC(=O)[C@H](CC(N)=O)NC1=O [AVP, Arginine vasopressin]",effect on binding of 300 nM 3H-AVP to lymphocyte receptors,[1]; cold AVP as competitor,did compete and block
same,DPM (Mean ± SD),"[1]; competitor 0.1 μM, none = 4,965 ± 226","5,265 ± 476 DPM"
same,DPM (Mean ± SD),[1]; competitor 1.0 μM,"4,209 ± 150 DPM"
same,DPM (Mean ± SD),[1]; competitor 10.0 μM,"3,621 ± 347 DPM"
same,DPM (Mean ± SD),[1]; competitor 100.0 μM,"3,577 ± 167 DPM"
TMKVLTGSP [AVP-binding peptide],Kd,AVP,~50 nM
pressinoic acid [PA],IFN,"[2]; Table 4, PA (10) (nm), no binding peptide",105 ± 21 U/ml
same,IFN,"[2]; Table 5, PA 3 nM, no complex",< 3 U/ml
same,IFN,"[2]; Table 5, PA 10 nM, no complex",185 ± 21 U/ml
same,IFN,"[2]; Table 5, PA 30 nM, no complex",250 ± 71 U/ml
